Measured values: patent US10758534B2 (Vertex Pharmaceuticals Incorporated, priority 2014, dated 2020)

target: T1, F508del (Homo sapiens, UniProt P13569, DEL508-508); assay: Protocol 1: membrane potential optical assay (FLIPR III, voltage sensing dye), identification of potentiator compounds; assay type: cell-based; conditions: Table 3, compounds of Table 1
T1 construct: expressed in transfected cells
Outline: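 Read-out: change in voltage-sensing dye fluorescence (FLIPR III) as a measure of F508del conductance. Temperature-corrected (27° C, 24 hrs) NIH 3T3 cells expressing F508del are pretreated with potentiators, dye-loaded, then stimulated with forskolin under a chloride ion gradient using chloride-free gluconate bath.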

T1 sequence (P13569 with tags, fused parts or gaps DEL508-508): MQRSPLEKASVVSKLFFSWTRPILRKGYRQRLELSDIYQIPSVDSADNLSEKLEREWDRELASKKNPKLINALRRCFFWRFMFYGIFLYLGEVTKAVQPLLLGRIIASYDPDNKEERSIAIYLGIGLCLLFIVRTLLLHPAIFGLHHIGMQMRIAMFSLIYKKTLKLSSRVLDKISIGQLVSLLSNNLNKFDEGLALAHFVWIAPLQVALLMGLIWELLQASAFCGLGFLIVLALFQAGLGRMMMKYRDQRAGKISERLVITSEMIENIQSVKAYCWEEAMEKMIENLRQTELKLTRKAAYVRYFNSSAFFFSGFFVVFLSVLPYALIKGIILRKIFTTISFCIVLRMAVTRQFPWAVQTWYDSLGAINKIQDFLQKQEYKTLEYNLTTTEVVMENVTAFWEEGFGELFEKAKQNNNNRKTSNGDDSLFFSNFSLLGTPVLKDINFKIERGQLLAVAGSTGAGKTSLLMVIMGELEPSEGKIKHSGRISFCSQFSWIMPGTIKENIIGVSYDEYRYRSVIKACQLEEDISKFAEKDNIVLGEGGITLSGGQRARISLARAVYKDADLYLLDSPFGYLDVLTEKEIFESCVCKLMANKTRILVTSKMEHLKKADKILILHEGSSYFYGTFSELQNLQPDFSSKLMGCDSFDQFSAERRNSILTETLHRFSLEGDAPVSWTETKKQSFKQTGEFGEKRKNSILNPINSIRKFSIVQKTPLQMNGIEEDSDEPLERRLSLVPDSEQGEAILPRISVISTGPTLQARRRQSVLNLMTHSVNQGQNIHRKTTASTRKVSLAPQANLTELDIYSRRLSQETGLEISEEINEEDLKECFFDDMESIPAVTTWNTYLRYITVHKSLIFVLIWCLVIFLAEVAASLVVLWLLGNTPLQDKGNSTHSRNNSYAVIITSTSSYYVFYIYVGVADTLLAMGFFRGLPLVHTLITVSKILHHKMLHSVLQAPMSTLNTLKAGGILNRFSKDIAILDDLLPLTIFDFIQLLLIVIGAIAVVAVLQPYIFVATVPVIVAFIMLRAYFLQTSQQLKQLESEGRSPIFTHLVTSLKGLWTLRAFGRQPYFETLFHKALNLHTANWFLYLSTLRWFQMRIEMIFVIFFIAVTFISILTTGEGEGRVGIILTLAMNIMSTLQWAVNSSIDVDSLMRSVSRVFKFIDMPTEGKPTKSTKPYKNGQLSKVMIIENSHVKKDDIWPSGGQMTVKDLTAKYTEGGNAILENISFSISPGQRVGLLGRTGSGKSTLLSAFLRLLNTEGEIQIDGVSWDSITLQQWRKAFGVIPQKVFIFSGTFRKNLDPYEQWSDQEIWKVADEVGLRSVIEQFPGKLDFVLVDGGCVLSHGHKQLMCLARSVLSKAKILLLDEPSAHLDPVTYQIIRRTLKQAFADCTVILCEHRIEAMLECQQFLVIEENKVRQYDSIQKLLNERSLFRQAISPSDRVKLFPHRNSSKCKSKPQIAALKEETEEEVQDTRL

Structure (SMILES) | EC30
C[C@@H]1CN(c2nc(C(C)(C)C)c(/C=C/c3ccc(C(F)(F)F)cc3)cc2C(=O)NS(=O)(=O)c2cccc(N)n2)C(C)(C)C1 [Compound 1566, N-[(6-amino-2-pyridyl)sulfonyl]-6-tert-butyl-5-[(E)-2-[4-(trifluoromethyl)phenyl]vinyl]-2-[(4S)-2,2,4-trimethylpyrrolidin-1-yl]pyridine-3-carboxamide] | +++ (“+++” means <3 uM)
CC(C)Oc1ccc(-c2ccc(C(=O)NS(=O)(=O)c3ccn[nH]3)c(N3C[C@H](C)C[C@@H](C)C3)n2)cn1 [Compound 990, 2-[(3R,5R)-3,5-dimethyl-1-piperidyl]-6-(6-isopropoxy-3-pyridyl)-N-(1H-pyrazol-5-ylsulfonyl)pyridine-3-carboxamide] | +++ (“+++” means <3 uM)
Cc1ccc(NCC(C)C)nc1-c1ccc(C(=O)NS(=O)(=O)c2cccc(N)n2)c(N2CC(C)CC2(C)C)n1 (centres unmarked) [Compound 1417, N-[(6-amino-2-pyridyl)sulfonyl]-6-[6-(isobutylamino)-3-methyl-2-pyridyl]-2-(2,2,4-trimethylpyrrolidin-1-yl)pyridine-3-carboxamide] | ++ (“++” means between 3 uM and 10 uM)
CCCOc1cccc(-c2ccc(C(=O)NS(=O)(=O)c3ccc[nH]c3=O)c(Oc3c(C)cc(C)cc3C)n2)c1 [Compound 1143, N-[(2-oxo-1H-pyridin-3-yl)sulfonyl]-6-(3-propoxyphenyl)-2-(2,4,6-trimethylphenoxy)pyridine-3-carboxamide] | ++ (“++” means between 3 uM and 10 uM)
CC(C)COc1ccn(-c2ccc(C(=O)NS(=O)(=O)c3cccc(N)n3)c(N3C[C@@H](C)CC3(C)C)n2)n1 [Compound 1620, N-[(6-amino-2-pyridyl)sulfonyl]-6-(3-isobutoxypyrazol-1-yl)-2-[(4S)-2,2,4-trimethylpyrrolidin-1-yl]pyridine-3-carboxamide] | +++ (“+++” means <3 uM)
CC1CN(c2ncccc2C(=O)NS(=O)(=O)c2cccc(Nc3ccc4c(c3)CCC4)n2)C(C)(C)C1 (centres unmarked) [Compound 1909, N—[[6-(indan-5-ylamino)-2-pyridyl]sulfonyl]-2-(2,2,4-trimethylpyrrolidin-1-yl)pyridine-3-carboxamide] | +++ (“+++” means <3 uM)
C[C@@H]1CN(c2nc(-n3ccc(OCC(C)(C)C)n3)ccc2C(=O)NS(=O)(=O)c2cccnc2N)C(C)(C)C1 [Compound 1975, N-[(2-amino-3-pyridyl)sulfonyl]-6-[3-(2,2-dimethylpropoxy)pyrazol-1-yl]-2-[(4S)-2,2,4-trimethylpyrrolidin-1-yl]pyridine-3-carboxamide] | +++ (“+++” means <3 uM)
CC(C)Oc1ccc(-c2ccc(C(=O)NS(=O)(=O)c3cccc(N)n3)c(N3CCCCCC3)n2)cn1 [Compound 940, N-[(6-amino-2-pyridyl)sulfonyl]-2-(azepan-1-yl)-6-(6-isopropoxy-3-pyridyl)pyridine-3-carboxamide] | +++ (“+++” means <3 uM)
CC(C)COc1cc(F)cc(-c2ccc(C(=O)NS(=O)(=O)c3cccc(N)n3)c(OC3CCCC3)n2)c1 [Compound 1451, N-[(6-amino-2-pyridyl)sulfonyl]-2-(cyclopentoxy)-6-(3-fluoro-5-isobutoxy-phenyl)pyridine-3-carboxamide] | +++ (“+++” means <3 uM)
Cc1cc(C)c(Oc2nc(-c3ccc(OCC4CC4)cc3)ccc2C(=O)NS(=O)(=O)c2ccc[nH]c2=O)c(C)c1 [Compound 1007, 6-[4-(cyclopropylmethoxy)phenyl]-N-[(2-oxo-1H-pyridin-3-yl)sulfonyl]-2-(2,4,6-trimethylphenoxy)pyridine-3-carboxamide] | +++ (“+++” means <3 uM)
Cc1cc(C)c(CN2CCc3ccccc3CC2C(=O)NS(=O)(=O)c2ccccn2)c(C)c1 (centres unmarked) [Compound 1093, N-(2-pyridylsulfonyl)-3-[(2,4,6-trimethylphenyl)methyl]-1,2,4,5-tetrahydro-3-benzazepine-4-carboxamide] | ++ (“++” means between 3 uM and 10 uM)
CC1CN(c2ncccc2C(=O)NS(=O)(=O)c2cccc(OC3CCCCC3)n2)C(C)(C)C1 (centres unmarked) [Compound 1908, N—[[6-(cyclohexoxy)-2-pyridyl]sulfonyl]-2-(2,2,4-trimethylpyrrolidin-1-yl)pyridine-3-carboxamide] | +++ (“+++” means <3 uM)
COc1ccccc1Nc1cccc(S(=O)(=O)NC(=O)c2cccnc2N2CC(C)CC2(C)C)n1 (centres unmarked) [Compound 1959, N—[[6-(2-methoxyanilino)-2-pyridyl]sulfonyl]-2-(2,2,4-trimethylpyrrolidin-1-yl)pyridine-3-carboxamide] | +++ (“+++” means <3 uM)
CC(C)COc1cc(F)cc(-c2ccc(C(=O)NS(=O)(=O)N3CCCC3)c(N3C[C@@H](C)CC3(C)C)n2)c1 [Compound 1619, 6-(3-fluoro-5-isobutoxy-phenyl)-N-pyrrolidin-1-ylsulfonyl-2-[(4S)-2,2,4-trimethylpyrrolidin-1-yl]pyridine-3-carboxamide] | +++ (“+++” means <3 uM)
Cc1cc(C)c(Oc2nc(-c3cccc(F)c3O)ccc2C(=O)NS(=O)(=O)c2cccc(N)n2)c(C)c1 [Compound 866, N-[(6-amino-2-pyridyl)sulfonyl]-6-(3-fluoro-2-hydroxy-phenyl)-2-(2,4,6-trimethylphenoxy)pyridine-3-carboxamide] | +++ (“+++” means <3 uM)
CC(C)Oc1ccc(-c2ccc(C(=O)NS(=O)(=O)c3cccc(N)n3)c(NC3CCc4ccccc43)n2)cn1 (centres unmarked) [Compound 935, N-[(6-amino-2-pyridyl)sulfonyl]-2-(indan-1-ylamino)-6-(6-isopropoxy-3-pyridyl)pyridine-3-carboxamide] | ++ (“++” means between 3 uM and 10 uM)
CC(C)COc1cnn(-c2ccc(C(=O)NS(=O)(=O)c3cccnc3N)c(N3C[C@@H](C)CC3(C)C)n2)c1 [Compound 1895, N-[(2-amino-3-pyridyl)sulfonyl]-6-(4-isobutoxypyrazol-1-yl)-2-[(4S)-2,2,4-trimethylpyrrolidin-1-yl]pyridine-3-carboxamide] | +++ (“+++” means <3 uM)
CC(c1ccccc1)n1nc(C(C)(C)C)cc1C(=O)NS(=O)(=O)c1cccc(N)c1 (centres unmarked) [Compound 799, N-(3-aminophenyl)sulfonyl-5-ter-butyl-2-(1-phenylethyl)pyrazole-3-carboxamide] | + (“+” means greater than 10 uM)
CCOc1cc(C)cc(-c2cnc(N3CC(C)CC3(C)C)c(C(=O)NS(=O)(=O)c3cccc(N)n3)c2)c1 (centres unmarked) [Compound 1843, N-[(6-amino-2-pyridyl)sulfonyl]-5-(3-ethoxy-5-methyl-phenyl)-2-(2,2,4-trimethylpyrrolidin-1-yl)pyridine-3-carboxamide] | +++ (“+++” means <3 uM)
CCOc1cccc2c1CN(Cc1c(C)cc(C)cc1C)C2(C)C(=O)NS(=O)(=O)c1ccncc1 (centres unmarked) [Compound 1449, 4-ethoxy-1-methyl-N-(4-pyridylsulfonyl)-2-[(2,4,6-trimethylphenyl)methyl]isoindoline-1-carboxamide] | +++ (“+++” means <3 uM)
Cc1ccc(-c2ccc(C(=O)NS(=O)(=O)c3ccc[nH]c3=O)c(Oc3ccc(C)cc3C)n2)cc1 [Compound 1129, 2-(2,4-dimethylphenoxy)-N-[(2-oxo-1H-pyridin-3-yl)sulfonyl]-6-(p-tolyl)pyridine-3-carboxamide] | ++ (“++” means between 3 uM and 10 uM)
COc1cccc(CN(C)c2cccc(S(=O)(=O)NC(=O)c3cccnc3N3CC(C)CC3(C)C)n2)c1 (centres unmarked) [Compound 1940, N—[[6-[(3-methoxyphenyl)methyl-methyl-amino]-2-pyridyl]sulfonyl]-2-(2,2,4-trimethylpyrrolidin-1-yl)pyridine-3-carboxamide] | +++ (“+++” means <3 uM)
CC1CN(c2nc(C(C)(C)C)c(C3=CC(C)(C)OC(C)(C)C3)cc2C(=O)NS(=O)(=O)c2cccc(N)n2)C(C)(C)C1 (centres unmarked) [Compound 1647, N-[(6-amino-2-pyridyl)sulfonyl]-6-tert-butyl-5-(2,2,6,6-tetramethyl-3H-pyran-4-yl)-2-(2,2,4-trimethylpyrrolidin-1-yl)pyridine-3-carboxamide] | +++ (“+++” means <3 uM)
Cc1ccc(-c2ccc(C(=O)NS(=O)(=O)c3cccc(N)n3)c(N3C[C@@H](C)CC3(C)C)n2)c(F)c1 [Compound 1910, N-[(6-amino-2-pyridyl)sulfonyl]-6-(2-fluoro-4-methyl-phenyl)-2-[(4S)-2,2,4-trimethylpyrrolidin-1-yl]pyridine-3-carboxamide] | +++ (“+++” means <3 uM)
Cc1cc(C)c(Oc2nc(-c3ccc4c(c3)OCO4)ccc2C(=O)NS(=O)(=O)c2cccc(N)n2)c(C)c1 [Compound 1207, N-[(6-amino-2-pyridyl)sulfonyl]-6-(1,3-benzodioxol-5-yl)-2-(2,4,6-trimethylphenoxy)pyridine-3-carboxamide] | +++ (“+++” means <3 uM)
CCn1cc(-c2ccc(C(=O)NS(=O)(=O)c3cccc(N)n3)c(Oc3c(C)cc(C)cc3C)n2)cn1 [Compound 1312, N-[(6-amino-2-pyridyl)sulfonyl]-6-(1-ethylpyrazol-4-yl)-2-(2,4,6-trimethylphenoxy)pyridine-3-carboxamide] | ++ (“++” means between 3 uM and 10 uM)
Cc1cc(C)c(Oc2nc(C(C)(C)C)ccc2C(=O)NS(=O)(=O)c2cnc(N)s2)c(C)c1 [Compound 1148, N-(2-aminothiazol-5-yl)sulfonyl-6-tert-butyl-2-(2,4,6-trimethylphenoxy)pyridine-3-carboxamide] | +++ (“+++” means <3 uM)
Cc1cc(C)c(Cn2nc(C(C)(C)C)cc2C(=O)NS(=O)(=O)c2ccncc2)c(C)c1 [Compound 1585, 5-tert-butyl-N-(4-pyridylsulfonyl)-2-[7(2,4,6-trimethylphenyl)methyl]pyrazole-3-carboxamide] | +++ (“+++” means <3 uM)
COc1cc(-c2ccc(C(=O)NS(=O)(=O)c3cccc(N)n3)c(Oc3c(C)cc(C)cc3C)n2)ccc1F [Compound 919, N-[(6-amino-2-pyridyl)sulfonyl]-6-(4-fluoro-3-methoxy-phenyl)-2-(2,4,6-trimethylphenoxy)pyridine-3-carboxamide] | +++ (“+++” means <3 uM)
